# Literature values, collected in patent publication US20260216201A1 (priority 2025, published 2026).
# Settings: n-octanol/buffer pH 7.4
compound,measurement,value
"Cc1cnc(NC(=O)C2=C(O)c3ccccc3S(=O)(=O)N2C)s1 [Meloxicam, 4-hydroxy-2-methyl-N-(5 methyl-2-thiazolyl)-2H-1,2-benzothiazine-3-carboxamide-1,1-dioxide]",apparent partition coefficient (log P),0.1
